pEC50: −log10 of the molar value.
How the values were obtained:
Plasmodium falciparum [1] = assay: Antiplasmodial activity against Plasmodium falciparum Dd2 in human O+ erythrocytes after 72 hrs by DAPI staining; assay type: functional, organism-based; conditions: Dd2, 72 h
Plasmodium falciparum [2] = assay: Antiplasmodial activity against Plasmodium falciparum 3D7 in human O+ erythrocytes after 72 hrs by DAPI staining; assay type: functional, organism-based; conditions: 3D7, 72 h

Compound	pEC50 (Plasmodium falciparum [1])	pEC50 (Plasmodium falciparum [2])
O=[N+]([O-])c1ccc(S(=O)(=O)N2CCN(Cc3ccccc3)CC2)cc1	< 5.00	
O=[N+]([O-])c1ccc(S(=O)(=O)N2CCN(C(=S)NCCc3ccccc3)CC2)cc1	6.68	
O=[N+]([O-])c1ccc(S(=O)(=O)N2CCN(C(=S)NCC3CCCO3)CC2)cc1 (stereo not drawn)	6.47	6.50
O=S(=O)(c1ccc(Cl)cc1)N1CCN(C(=S)NCC2CCCO2)CC1 (stereo not drawn)	6.07	6.18
COCCNC(=S)N1CCN(S(=O)(=O)c2ccc([N+](=O)[O-])cc2)CC1	6.45	6.51
O=S(=O)(c1ccc2c(c1)OCCO2)N1CCN(C(=S)NCc2ccccc2)CC1	< 5.00	5.19
O=C(NCc1ccco1)N1CCN(S(=O)(=O)c2ccc(Cl)cc2)CC1	5.64	5.59
CS(=O)(=O)N1CCN(C(=S)NCc2ccco2)CC1	< 5.00	< 5.00
O=S(=O)(c1ccccc1F)N1CCN(C(=S)NCc2ccccc2)CC1	5.50	5.62
O=S(=O)(c1ccc(Cl)cc1)N1CCN(C(=S)NCc2ccc(Cl)cc2)CC1	6.40	
C/N=C(/SCc1ccccc1)N1CCN(S(=O)(=O)c2ccc([N+](=O)[O-])cc2)CC1	4.89	4.94
O=S(=O)(c1ccccc1)N1CCN(C(=S)NCc2ccccc2)CC1	5.72	5.73
O=S(=O)(c1ccc(Br)cc1Cl)N1CCN(C(=S)NCc2ccccc2)CC1	6.06	6.08
O=C(NCc1ccco1)N1CCN(S(=O)(=O)c2ccc([N+](=O)[O-])cc2)CC1	5.35	5.19
O=[N+]([O-])c1ccc(S(=O)(=O)N2CCC(C(=S)NCc3ccccc3)CC2)cc1	5.21	5.22
CCOc1ccc(S(=O)(=O)N2CCN(C(=S)NCc3ccccc3)CC2)cc1	5.71	5.91

Compound	pEC50 (Plasmodium falciparum [1])	pEC50 (Plasmodium falciparum [2])
O=[N+]([O-])c1ccc(S(=O)(=O)N2CCN(C(=S)CCc3ccccc3)CC2)cc1	5.77	5.90
O=S(=O)(c1cccc(F)c1)N1CCN(C(=S)NCc2ccccc2)CC1	5.71	5.83
Cc1cc(Nc2ccccc2)nc(N2CCN(S(=O)(=O)c3ccc([N+](=O)[O-])cc3)CC2)n1	5.00	4.95
Cc1cc(NCc2ccccc2)nc(N2CCN(S(=O)(=O)c3ccc([N+](=O)[O-])cc3)CC2)n1	5.24	5.40
O=[N+]([O-])c1ccc(S(=O)(=O)N2CCN(C/C=C/c3ccccc3)CC2)cc1	5.22	
O=[N+]([O-])c1ccc(S(=O)(=O)N2CCN(C(=S)NCc3ccccc3)CC2)cc1	6.99	7.25
O=[N+]([O-])c1ccc(S(=O)(=O)N2CCN(C(=S)NCc3ccco3)CC2)cc1	6.93	7.19
O=C(NCc1ccccc1)C1CCN(S(=O)(=O)c2ccc([N+](=O)[O-])cc2)CC1	5.43	5.23
N=C(NCc1ccccc1)N1CCN(S(=O)(=O)c2ccc([N+](=O)[O-])cc2)CC1	< 4.60	< 4.60
O=C(CCc1ccccc1)N1CCN(S(=O)(=O)c2ccc([N+](=O)[O-])cc2)CC1	4.87	4.87
O=S(=O)(c1ccc(F)cc1)N1CCN(C(=S)NCc2ccccc2)CC1	6.31	6.35
CCNC(=S)N1CCN(S(=O)(=O)c2ccccc2C(F)(F)F)CC1	< 5.00	< 5.00
O=S(=O)(c1ccc(F)c(F)c1F)N1CCN(C(=S)NCc2ccccc2)CC1	5.79	5.82
O=S(=O)(c1ccc(Cl)cc1)N1CCN(C(=S)NCc2ccco2)CC1	6.26	6.21
O=S(=O)(c1c(Cl)cc(Br)cc1Cl)N1CCN(C(=S)NCc2ccccc2)CC1	5.36	5.57
